“And” between values parts separate entries of the source, which are not always exact repeats. Identical values can stand only once. Like-named read-outs stand apart in the source and are kept apart here.

Experiment [1] concerns human erythroleukemia (K562) cell line. Description: MTS antiproliferative (cytotoxicity) assay, K562. It counts as cell-based. The conditions noted are these: for IC50: Homo sapiens; for SI (selectivity index), K562: Vero as reference cell line. As for the experimental part:
(§1) The cytotoxicity of synthesized 3-azaspiro[bicyclo[3.1.0]hexane-2,5′-pyrimidines] 4 against human erythroleukemia (K562), cervical carcinoma (HeLa), and T lymphocyte (Jurkat), as well as mouse colon carcinoma (CT26) and African green monkey kidney epithelial (Vero) cell lines as reference, was evaluated in vitro by the standard MTS assay for 24 and 72 h.
(§2) All the cell lines (human cervical carcinoma (HeLa), erythroleukemia (K-562), and T lymphocyte (Jurkat) as well as mouse colon carcinoma (CT26) and African green monkey kidney epithelial (Vero)) were obtained from the cell repository “Vertebrate cell culture collection” (supported by the Ministry of Science and Higher Education of the Russian Federation, agreement №075-15-2021-683, Institute of Cytology, Russian Academy of Sciences, Saint Petersburg, Russia). HeLa, Jurkat, and Vero cells were cultured in DMEM (HyClone, South Logan, UT, USA) supplemented with 10% (v/v) fetal bovine serum (Hyclone, GE Healthcare Life Sciences, Logan, UT, USA), and gentamicin (Sigma-Aldrich, St. Louis, MO, USA) at 37 °C in a humidified atmosphere with 5% CO2. K-562 and CT26 cells were grown at RPMI medium (Hyclone, GE Healthcare Life Sciences, Logan, UT, USA), with the same supplements and conditions.
(§3) To evaluate the in vitro toxicity of compounds synthesized, cells were seeded into 96-well plates at a density of 5 × 10^3 cells per well. On the next day, tested compounds were added to the wells at concentrations ranging from […], followed by incubation for 1 and 3 days. Cell proliferation was determined by adding 20 μL of MTS reagent (BioVision, Milpitas, CA, USA) stock solution per well. Each plate was incubated for 2 h at 37 °C in a humidified, 5% CO2 atmosphere. The plates were then read at 495 nm using plate spectrophotometer (Multiskan GO, Thermo Fisher Scientific, Waltham, MA, USA). All samples were measured in triplicates.

Experiment [2] relates to human cervical carcinoma (HeLa) cell line. Description: MTS antiproliferative (cytotoxicity) assay, HeLa. Conditions: HeLa; for SI (selectivity index), HeLa: Vero as reference cell line; for IC50: Homo sapiens. It counts as cell-based. As for the experimental part: as §1, §2, §3
The test system of experiment [3] is mouse colon carcinoma (CT26) cell line. Description: MTS antiproliferative (cytotoxicity) assay, CT26. It counts as cell-based. The conditions noted are these: for SI (selectivity index), CT26: Vero as reference cell line; for IC50: Mus musculus. As for the experimental part: as §1, §2, §3
Experiment [4] relates to human T lymphocyte (Jurkat) cell line. The experiment is described as follows: MTS antiproliferative (cytotoxicity) assay, Jurkat. It counts as cell-based. Conditions: for IC50: Homo sapiens, MTS; for SI (selectivity index), Jurkat: Vero as reference cell line. The protocol: The cytotoxicity of synthesized 3-azaspiro[bicyclo[3.1.0]hexane-2,5′-pyrimidines] 4 against human erythroleukemia (K562), cervical carcinoma (HeLa), and T lymphocyte (Jurkat), as well as mouse colon carcinoma (CT26) and African green monkey kidney epithelial (Vero) cell lines as reference, was evaluated in vitro by the standard MTS assay for 24 and 72 h. The results are presented in Figure 1, Figure 2, Figure 3, Figure 4 and Figure 5 (data on all, tested on K562, HeLa, and CT26 cell lines’ compounds, are given at SI, Figures S1–S3). […] Replacement of the phenyl group by either the carboxymethyl or N-isopropylcarbamoyl group has led to a significant decrease in the activity of spiro-fused cycloadducts comprising azabicyclo[3.1.0]hexane and alloxane moieties.
as §2, §3

Experiment [5] deals with African green monkey kidney epithelial (Vero) cell line. The experiment is described as follows: MTS antiproliferative (cytotoxicity) assay, Vero (reference). The experiment is classed as cell-based. The conditions noted are these: Chlorocebus sabaeus, Vero. As for the experimental part: as §1, §2, §3
The next experiment relates to HeLa cells. The experiment is described as follows: Annexin V-FITC/DAPI cell death analysis, HeLa. The experiment is classed as cell-based, human. Conditions: 10 μg/mL, 72 h; for Necrotic Cells, %: control 0.5 ± 0.3; for Early Apoptotic Cells, %: control 4.5 ± 0.7; for Late Apoptotic Cells, %: control 5.9 ± 0.4; for Live Cells, %: control 89.0 ± 0.7. As for the experimental part: (§4) The results of cell death detection after the exposure of the HeLa and CT26 cell lines to spiro-fused cycloadducts 4c–i at a dose of 10 μg/mL for 72 h, using Annexin V-FITC/DAPI staining, are shown in Figure 6 and Figure 7, respectively.
(§5) Cells were seeded in 24-well plates, 5 × 10^4 cells per well. After 24 h incubation, cells were treated with compounds 4c–i for 72 h. Then, cells were washed, harvested by trypsinisation, stained with Annexin V-FITC ([…]) and DAPI (Thermo Fisher Scientific, Waltham, MA, USA), in accordance with the protocol of the manufacturer, and analyzed by flow cytometry. The proapoptotic effect of azaspiro[bicyclo[3.1.0]hexane-2,5′-pyrimidines] 4c–i was evaluated by an Annexin V-FITC/DAPI (AV/DAPI) dual-staining assay to examine the occurrence of phosphatidylserine externalization, which facilitated the detection of live cells (lower-left quadrant; AV−/DAPI−), early apoptotic cells (upper-left quadrant; AV+/DAPI−), late apoptotic cells (upper-right quadrant; AV+/DAPI+), and necrotic cells (lower-right quadrant; AV−/DAPI+).

The next experiment has as its system CT26 cells. The experiment is described as follows: Annexin V-FITC/DAPI cell death analysis, CT26. Conditions: CT26, 10 μg/mL, 72 h; for Necrotic Cells, %: control 0.0 ± 0.0; for Late Apoptotic Cells, %: control 0.9 ± 0.4; for Early Apoptotic Cells, %: control 10.5 ± 0.7; for Live Cells, %: control 88.5 ± 1.1. It counts as cell-based, mouse. As for the experimental part: as §4, §5

Where [6] appears, read: K562, 24 h, read-out: IC50, K562, 24 h.
The mark [7] stands for this setting: K562, 72 h, read-out: IC50, K562, 72 h.
The mark [8] stands for this setting: 24 h, read-out: IC50, HeLa, 24 h.
Setting [9] is: 72 h, read-out: IC50, HeLa, 72 h.
[10] abbreviates: CT26, 24 h, read-out: IC50, CT26, 24 h.
[11] abbreviates: CT26, 72 h, read-out: IC50, CT26, 72 h.
[12] abbreviates: 24 h, read-out: IC50, Jurkat, 24 h.
Setting [13] is: 72 h, read-out: IC50, Jurkat, 72 h.
[14] abbreviates: 24 h, read-out: IC50, Vero, 24 h.
Where [15] appears, read: 72 h, read-out: IC50, Vero, 72 h.

Take `CCCCCC[C@@H]1NC2(C(=O)NC(=O)NC2=O)[C@]2(c3ccccc3)[C@@H](c3ccccc3)[C@]12c1ccccc1` [Compound 4g]: the concentration for half-maximal inhibition (IC50) in experiment [1] (setting [6]) is 19 ± 2 µM; in experiment [1] (setting [7]), 10 ± 2 µM; in experiment [2] (setting [8]), 15 ± 2 µM; in experiment [2] (setting [9]), 13 ± 2 µM; in experiment [3] (setting [10]), 22 ± 2 µM; in experiment [3] (setting [11]), 12 ± 2 µM. The IC50 was 11 ± 2 µM in experiment [4] (setting [12]), 8 ± 2 µM in experiment [4] (setting [13]), 33 ± 6 µM in experiment [5] (setting [14]) and 14 ± 2 µM in experiment [5] (setting [15]). Moreover, the “SI (selectivity index), K562” value in experiment [1] is reported as 1.4. Besides, the “SI (selectivity index), HeLa” value in experiment [2] is given as 1.1. Further, the “SI (selectivity index), CT26” value in experiment [3] stood at 1.2. Also, the “SI (selectivity index), Jurkat” value in experiment [4] was 1.8. Moreover, the “Necrotic Cells, %” value with HeLa cells is 6.3 ± 2.8 %; with CT26 cells it was 0.3 ± 0.1 %. For the same compound, the “Early Apoptotic Cells, %” value in the experiment on HeLa cells is on record as 38.5 ± 1.9 %; in the experiment with CT26 cells, 5.5 ± 0.1 %. Also, the results for the “Late Apoptotic Cells, %” value in the experiment on HeLa cells and with CT26 cells were 38.0 ± 6.9 % and 10.0 ± 0.3 %, respectively. The “Live Cells, %” value in the experiment with HeLa cells is 17.1% and 17.1 ± 3.5 %; in the experiment with CT26 cells, 84.2 ± 0.3 %.

As for `CCC[C@@H]1NC2(C(=O)NC(=O)NC2=O)[C@]2(c3ccccc3)[C@@H](c3ccccc3)[C@]12c1ccccc1` [Compound 4d], the half-inhibitory concentration (IC50) in experiment [1] (setting [6]) came to 21 ± 4 µM; in experiment [1] (setting [7]) it was 9 ± 2 µM; in experiment [2] (setting [8]), 17 ± 2 µM; in experiment [2] (setting [9]), 15 ± 2 µM; in experiment [3] (setting [10]), 17 ± 2 µM; in experiment [3] (setting [11]), 13 ± 2 µM. In addition, the concentration for half-maximal inhibition (IC50) in experiment [4] (setting [12]) amounted to 15 ± 2 µM; in experiment [4] (setting [13]), 13 ± 2 µM; in experiment [5] (setting [14]), 48 ± 4 µM; in experiment [5] (setting [15]) it was 16 ± 2 µM. Further, the “SI (selectivity index), K562” value in experiment [1] turned out to be 1.8. In addition, the “SI (selectivity index), HeLa” value in experiment [2] was 1.1. Besides, the “SI (selectivity index), CT26” value in experiment [3] amounted to 1.3. The “SI (selectivity index), Jurkat” value in experiment [4] is given as 1.3. In addition, the “Necrotic Cells, %” value stood at 3.6 ± 1.8 % in the experiment on HeLa cells and 1.1 ± 0.3 % in the experiment on CT26 cells. Besides, the “Early Apoptotic Cells, %” value came to 11.6 ± 0.2 % with HeLa cells and 9.6 ± 0.5% in the experiment with CT26 cells. In addition, the “Late Apoptotic Cells, %” value in the experiment with HeLa cells is given as 38.1 ± 16.8 %; in the experiment with CT26 cells, 56.4 ± 2.4 %. The “Live Cells, %” value in the experiment with HeLa cells was 46.8% and 46.8 ± 18.4 %; in the experiment with CT26 cells, 32.8 ± 3.0 %.

For `CC(C)C[C@@H]1NC2(C(=O)NC(=O)NC2=O)[C@]2(c3ccccc3)[C@@H](c3ccccc3)[C@]12c1ccccc1` [Compound 4f], the IC50 in experiment [1] (setting [6]) turned out to be 17 ± 4 µM; in experiment [1] (setting [7]), 6 ± 2 µM; in experiment [2] (setting [8]) it was 19 ± 2 µM; in experiment [2] (setting [9]) it was 23 ± 6 µM; in experiment [3] (setting [10]), 17 ± 2 µM; in experiment [3] (setting [11]), 10 ± 2 µM. Besides, the half-maximal inhibitory concentration (IC50) in experiment [4] (setting [12]) worked out at 11 ± 2 µM; in experiment [4] (setting [13]) it was 9 ± 2 µM; in experiment [5] (setting [14]) it was 48 ± 6 µM; in experiment [5] (setting [15]), 10 ± 2 µM. The “SI (selectivity index), K562” value in experiment [1] is 1.7. Moreover, in experiment [2], the “SI (selectivity index), HeLa” value is listed as 0.5. In addition, the “SI (selectivity index), CT26” value in experiment [3] is listed as 1.0. Also, in experiment [4], the “SI (selectivity index), Jurkat” value is 1.2. Moreover, the “rate of cell death in HeLa vs control” value in the experiment on HeLa cells is recorded as “not different from the control”. For the same compound, the “Necrotic Cells, %” value in the experiment with HeLa cells is listed as 2.1 ± 1.3 %; in the experiment on CT26 cells it was 1.9 ± 0.5 %. Further, the entries for the “Early Apoptotic Cells, %” value in the experiment with HeLa cells and in the experiment with CT26 cells were 2.9 ± 0.1 % and 6.2 ± 1.2 %, respectively. Also, the “Late Apoptotic Cells, %” value in the experiment with HeLa cells was 4.1 ± 0.5 %; with CT26 cells it was 57.8 ± 3.1 %. The “Live Cells, %” value in the experiment on HeLa cells stood at 90.9 ± 1.6%; with CT26 cells it was 34.1 ± 3.8 %.

(Values after article PMC9506420, “Biological Evaluation of 3-Azaspiro[Bicyclo[3.1.0]Hexane-2,5′-Pyrimidines] as Potential Antitumor Agents” (International Journal of Molecular Sciences, 2022).)
